In patent publication US20130122113A1, “ANTITUMORAL COMBINATION COMPRISING OMBRABULIN, A TAXANE DERIVATIVE AND A PLATINUM DERIVATIVE” (SANOFI, priority 2010, published 2013):

Experiments:
clinical = test: clinical
Procedure: Blood samples for pharmacokinetic analysis were obtained from all patients on Day 1, 2 and 3 at Cycle 1.
A series of 2-mL blood samples were collected in heparinized (lithium heparinate) tubes as follows: • immediately prior to the end of infusion; • at 5, 10, 25, 45 and 60 minutes post infusion; • at 2, 4, 6, 8, 10 and 24 hours post infusion (i.e a total of 24 mL of blood).

[1] = Phase I dose escalation study of ombrabulin with platinum salts and taxanes every 3 weeks: DLT, MAD, RD, TEAE; format: in vivo, patients
Procedure: Dose Limiting Toxicity (DLT) at cycle 1.
Two groups of patients will be treated: one with docetaxel-cisplatin doublet (group 1) and the second with paclitaxel-carboplatin doublet (group 2), both in combination with ombrabulin.
The combination will be started with the following schedule (schedule A) for group 1:
Day 1: ombrabulin as a 30 minutes i.v. infusion immediately followed by 120 minutes i.v. infusion of cisplatin, and
Day 2: docetaxel administered as a 60 minutes i.v. infusion 24 hours apart ombrabulin infusion end and for the first 4 dose levels (I, II, III, IV).
Cohorts of 3 or 6 patients will receive escalating doses of ombrabulin (15.5, 20 and 25 mg/m^2) with a fixed dose of cisplatin at 75 mg/m^2 on Day 1, followed by docetaxel on Day 2, given either at 60 mg/m^2 for the ombrabulin doses of 15.5 and 20 mg/m^2 or at 75 mg/m^2 for the ombrabulin doses of 20 and 25 mg/m^2.
Taking into consideration the recommended dose of the combination ombrabulin and cisplatin administered the same day (25 mg/m^2 and 75 mg/m^2 respectively) every 3 weeks, after dose level IV, even if MAD not reached at this dose level, dose escalation of ombrabulin will be stopped and the combination will be administered with the following schedule (schedule B) in the 2 groups:
Day 1: ombrabulin as a 30 minutes i.v. infusion, and
Group 1: docetaxel administered as a 60 minutes i.v. infusion followed by cisplatin as a 120 minutes i.v. infusion, 24 hours apart ombrabulin infusion end.
Group 2: paclitaxel administered as a 180 minutes i.v. infusion followed by carboplatin as a 30 minutes i.v. infusion, 24 hours apart ombrabulin infusion end.
Cohorts of 3 or 6 patients will be screened and treated at each dose level. When the first three patients of a cohort have completed the first cycle, i.e. should have received at least one treatment course and should have been observed for acute toxicity for at least a 3-week follow-up period (or shorter period provided that a DLT has been observed), dose escalation strategy will be as follows: […]

[2] = cited from earlier work
[3] = ombrabulin 15.5 mg/m^2, 3 patients, cycle 1, mean (CV)
[4] = ombrabulin 20 mg/m^2, 26 patients, cycle 1, mean (CV)
[5] = ombrabulin 25 mg/m^2, 12 patients, cycle 1, mean (CV)
[6] = ombrabulin 30 mg/m^2, 6 patients, cycle 1, mean (CV)
[7] = ombrabulin 35 mg/m^2, 5 patients, cycle 1, mean (CV)
[8] = ombrabulin, Overall (15.5-35 mg/m^2), 52 patients, cycle 1, mean (CV)
[9] = ombrabulin, Overall (15.5-35 mg/m^2), 52 patients, cycle 1, mean (CV), listed as Ombrabulin

Question: For COc1ccc(/C=C\c2cc(OC)c(OC)c(OC)c2)cc1N [ombrabulin metabolite, (Z)-1-(3-amino-4-methoxyphenyl)-2-(3,4,5-trimethoxyphenyl)ethene], which “Metabolite exposure relative to ombrabulin” value (clinical; human, in vivo) is on record?
Answer: Its value is “about 2 fold”.

Question: For COc1ccc(/C=C\c2cc(OC)c(OC)c(OC)c2)cc1NC(=O)[C@@H](N)CO [ombrabulin, (Z)-N-[2-methoxy-5-[2-(3,4,5-trimethoxyphenyl)vinyl]phenyl]-L-serinamide], which maximum administered dose ([1]; Cohort II: Ob d1, C75/D75 d2, 19 pts) is on record?
Answer: The maximum administered dose was 35 mg/m^2.

Question: What about the maximum administered dose ([1]; Cohort III: Ob d1, CbAUC5/P175 d2, 18 pts) of the same compound?
Answer: The maximum administered dose was 35 mg/m^2.

Question: And the maximum administered dose ([1]; Cohort IV: Ob d1, CbAUC6/P200 d2, 19 pts)?
Answer: Its maximum administered dose is 35 mg/m^2.

Question: What about the AUC (clinical; human, in vivo, 15.5 mg/m2) of the same compound?
Answer: The AUC was 276 ng·h/mL.

Question: And the AUC(0-t) (clinical; human, in vivo, 15.5 mg/m2)?
Answer: The AUC(0-t) was 274 ng·h/mL.

Question: What about the Cmax (clinical; human, in vivo, 15.5 mg/m2) of the same compound?
Answer: The Cmax was 712 ng/mL.

Question: What about the Tmax (clinical; human, in vivo, 15.5 mg/m2) of the same compound?
Answer: Its Tmax is 28.8 min.

Question: What about the AUC (clinical; human, in vivo, 20 mg/m2) of the same compound?
Answer: The AUC was 353 ng·h/mL.

Question: And the AUC(0-t) (clinical; human, in vivo, 20 mg/m2)?
Answer: The AUC(0-t) was 351 ng·h/mL.

Question: And the Cmax (clinical; human, in vivo, 20 mg/m2)?
Answer: Its Cmax is 861 ng/mL.

Question: What about the Tmax (clinical; human, in vivo, 20 mg/m2) of the same compound?
Answer: Its Tmax is 28.8 min.

Question: And the AUC (clinical; human, in vivo, 25 mg/m2)?
Answer: Its AUC is 383 ng·h/mL.

Question: And the AUC(0-t) (clinical; human, in vivo, 25 mg/m2)?
Answer: Its AUC(0-t) is 381 ng·h/mL.

Question: And the Cmax (clinical; human, in vivo, 25 mg/m2)?
Answer: The Cmax was 973 ng/mL.

Question: And the Tmax (clinical; human, in vivo, 25 mg/m2)?
Answer: The Tmax was 29.4 min.

Question: And the AUC (clinical; human, in vivo, 30 mg/m2)?
Answer: The AUC was 510 ng·h/mL.

Question: What about the AUC(0-t) (clinical; human, in vivo, 30 mg/m2) of the same compound?
Answer: The AUC(0-t) was 508 ng·h/mL.

Question: And the Cmax (clinical; human, in vivo, 30 mg/m2)?
Answer: Its Cmax is 1170 ng/mL.

Question: And the Tmax (clinical; human, in vivo, 30 mg/m2)?
Answer: Its Tmax is 32.4 min.

Question: What about the AUC (clinical; human, in vivo, 35 mg/m2) of the same compound?
Answer: Its AUC is 493 ng·h/mL.

Question: What about the AUC(0-t) (clinical; human, in vivo, 35 mg/m2) of the same compound?
Answer: Its AUC(0-t) is 491 ng·h/mL.

Question: And the Cmax (clinical; human, in vivo, 35 mg/m2)?
Answer: The Cmax was 1270 ng/mL.

Question: What about the Tmax (clinical; human, in vivo, 35 mg/m2) of the same compound?
Answer: Its Tmax is 30 min.

Question: What about the half-life (clinical; human, in vivo, t1/2Z (terminal elimination half-life), ombrabulin, Overall (15.5-35 mg/m^2), 52 patients, cycle 1, mean (CV)) of the same compound?
Answer: The half-life was 17 min.

Question: What about the “conversion to its active metabolite” value (clinical; in patients after i.v. infusion) of the same compound?
Answer: Its value is “rapidly converted”.

Question: And the Vss (clinical; [3])?
Answer: The Vss was 18.2 (32) L/m^2.

Question: And the t1/2Z (clinical; [3])?
Answer: The t1/2Z was 20.9 (76) min.

Question: And the CL (clinical; [4])?
Answer: The CL was 64.6 (42) L/h/m^2.

Question: And the Vss (clinical; [4])?
Answer: The Vss was 22.0 (57) L/m^2.

Question: What about the t1/2Z (clinical; [4]) of the same compound?
Answer: The t1/2Z was 17.7 (50) min.

Question: And the CL (clinical; [5])?
Answer: The CL was 80.1 (49) L/h/m^2.

Question: What about the Vss (clinical; [5]) of the same compound?
Answer: The Vss was 27.2 (76) L/m^2.

Question: What about the t1/2Z (clinical; [5]) of the same compound?
Answer: Its t1/2Z is 15.3 (37) min.

Question: What about the CL (clinical; [6]) of the same compound?
Answer: The CL was 63.4 (33) L/h/m^2.

Question: What about the Vss (clinical; [6]) of the same compound?
Answer: Its Vss is 24.3 (37) L/m^2.

Question: And the t1/2Z (clinical; [6])?
Answer: The t1/2Z was 18.5 (65) min.

Question: What about the CL (clinical; [7]) of the same compound?
Answer: Its CL is 95.7 (63) L/h/m^2.

Question: And the Vss (clinical; [7])?
Answer: Its Vss is 32.8 (78) L/m^2.

Question: And the t1/2Z (clinical; [7])?
Answer: Its t1/2Z is 14.3 (28) min.

Question: What about the CL (clinical; [8]) of the same compound?
Answer: The CL was 72.9 (23) L/h/m^2.

Question: And the Vss (clinical; [8])?
Answer: The Vss was 25.0 (33) L/m^2.

Question: What about the “t1/2Z (terminal elimination half-life)” value (clinical; [8]) of the same compound?
Answer: Its value is 17.3 (15) min.

Question: And the CL (clinical; [9])?
Answer: Its CL is 72.9 L/h/m^2.

Question: And the Vss (clinical; [9])?
Answer: Its Vss is 25.0 L/m^2.

Question: What about the “recommended dose in monotherapy” value ([2]; ombrabulin monotherapy) of the same compound?
Answer: Its value is 50 mg/m^2.

Question: And the “recommended dose of ombrabulin in combination with cisplatin” value ([2]; with cisplatin 75 mg/m^2 administered the same day, every 3 weeks)?
Answer: The value was 25 mg/m^2.

Question: And the “recommended dose of ombrabulin in bi-therapy with docetaxel” value ([2]; with docetaxel 75 mg/m^2, on-going phase I trial)?
Answer: The value was 35 mg/m^2.
